{"source": "patent US20150126467A1", "about": "“USE OF ALGINATE OLIGOMERS TO ENHANCE THE EFFECTS OF ANTIFUNGAL AGENTS” (AlgiIPharma AS, priority 2011, published 2015)", "system": "various Candida species and strains", "experiment": "Robotic MIC assay, summary over all strains (Example 2)", "type": "cell-based", "conditions": "all species and strains tested", "description": "The robotic assay described in Example 1 was employed in this Example. Strains were grown in Mueller-Hinton broth (LAB114 from Lab M Limited) and MIC values (μg ml-1) were determined for each antifungal after incubation for 48 h in the presence of 0, 2, 6 and 10% OligoG CF-5/20 G-fragments. […] OligoG CF-5/20 G-fragments were provided by AlgiPharma AS, Norway.\nCandida strains used were as follows: • C. albicans CCUG 39343 (strain from culture collection) • C. parapsillosis ATCC 22019T (strain from culture collection) • C. krusei 141/03 (candidosis) • C. krusei 249/03(2) (ulceration) • C. lusitaniae 994/01(2) (candidosis) • C. tropicalis 12 (vaginal) • C. tropicalis 75 (vaginal) • C. tropicalis 519468 (urinary) • C. tropicalis 544123 (urinary) • C. tropicalis 250/03 (candidosis) • C. tropicalis AG1 (oral) • C. tropicalis T2.2 (oral)", "data": [{"smiles": "C[C@@H]1[C@H](O)[C@@H](C)/C=C/C=C/CC/C=C/C=C/C=C/C=C/C(O[C@H]2O[C@H](C)[C@@H](O)[C@H](N)[C@@H]2O)CC2O[C@](O)(CC(O)C(O)CCC(O)CC(O)CC(O)CC(=O)O[C@H]1C)CC(O)C2C(=O)O", "note": "(stereo partly shown) [Nystatin, nystatin]", "values": [{"measurement": "effect of addition of OligoG CF-5/20 on MIC values", "result": "reduced"}]}]}
